Laboratory results published in patent publication US5173493A, “Pyridoindole derivatives and processes for preparation thereof” (Fujisawa Pharmaceutical Company, Ltd., priority 1988, dated 1992).
Like-named read-outs stand apart in the source and are kept apart here.

Columns and labels:
Benzold-Jarisch reflex = assay: Inhibition of Benzold-Jarisch reflex; type: in vivo, Male Sprague-Dawley rats; conditions: Rattus norvegicus, 5 min, iv
Method: (A) Inhibition of Benzold-Jarisch reflex
Male Sprague-Dawley rats weighing 260-350 g were anesthetized intraperitoneally with 1.25 g/kg urethane.
Blood pressure and heart rate were monitored continuously from the left common carotid artery with a pressure transducer. A right femoral vein was connulated for the intravenous injection (iv) of drugs. The trachea was also connulated to ease the respiration.
Rats were given a rapid bolus injection of 2-methyl-5-hydroxytryptamine (32 μg/kg, iv) to establish the control bradycardic response. Once the heart rate returned to base line, the rats were given the test compound (iv), followed by 5-minutes interval and another bolus injection of 2-methyl-5-hydroxytryptamine (32 μg/kg, iv).

[1] = tested on: Cisplatin-induced vomiting; assay: Inhibition of Cisplatin-induced vomiting; type: in vivo, female beagles; conditions: Canis lupus familiaris; intravenously twice, 10 minutes prior to and 90 minutes after Cisplatin (3.2 mg/kg, iv); observed up to 5 hours
Method: (B) Inhibition of Cisplatin-induced vomiting
Nonfasted female beagles weighing about 10 kg were administered test compound or saline intravenously twice 10 minutes prior to and 90 minutes after Cisplatin dosing (3.2 mg/kg, iv).
Cisplatin was dissolved in 0.9% warm saline with a final concentration of 3 mg/ml and used immediately.

[2] = inhibition of bradycardic response to 2-methyl-5-hydroxytryptamine (32 μg/kg, iv), anesthetized rats, read-out: ED50

| SMILES | ED50 (Benzold-Jarisch reflex; [2]) | ED50 [1] | ED50 (Benzold-Jarisch reflex) |
| --- | --- | --- | --- |
| Cc1[nH]cnc1CC1CCc2c(C)c3ccccc3n2C1=O.Cl (single isomer, unassigned; (+)) [Compound 3, (+)-8,9-Dihydro-10-methyl-7-[(5-methyl-1H-imidazol-4-yl)methyl]pyrido[1,2-a]indol-6(7H)-one hydrochloride] | 0.9 µg/kg | 1.1 µg/kg |  |
| Cc1[nH]cnc1C(O)C1CCc2c(C)c3ccccc3n2C1=O.O=C(O)/C=C\C(=O)O (single isomer, unassigned; isomer b) [Compound 1, 8,9-Dihydro-7-[(hydroxy)(5-methyl-1H-imidazol-4-yl)methyl]-10-methylpyrido[1,2-a]indol-6(7H)-one maleate (isomer B)] | 5.9 µg/kg |  |  |
| Cc1c2n(c3ccccc13)C(=O)C(Cc1c[nH]cn1)CC2 (centres unmarked) [Compound 2, 8,9-Dihydro-7-[(1H-imidazol-4-yl)methyl]-10-methylpyrido[1,2-a]indol-6(7H)-one] |  |  | 1.8 µg/kg |
| Cc1[nH]cnc1CC1(C)CCc2c(C)c3ccccc3n2C1=O (centres unmarked) [Compound 4, 8,9-Dihydro-7,10-dimethyl-7-[(5-methyl-1H-imidazol-4-yl)methyl]pyrido[1,2-a]indol-6(7H)-one] | 1.1 µg/kg |  |  |
